Data published in article PMC10223062, “Discovery of Novel Thiophene/Hydrazones: In Vitro and In Silico Studies against Pancreatic Cancer” (Pharmaceutics, 2023).
Where a name gives a salt, the structure may show the parent alone.

Columns and labels:
[1] = tested on: MIA PaCa-2 tumor spheroids; experiment: 3D spheroid formation/growth assay; type: cell-based, human; set-up: Spheroid Diameter Day 0 / Spheroid Diameter Day 9: unit not given here; settings: for Spheroid Diameter Day 0: Day 0 (baseline)
Procedure: (§1) For the preliminary assessment of anticancer activity in a 2D cell culture system, an MIA PaCa-2 human pancreas epithelial carcinoma (CRL-1420™) cell line (ATCC, Manassas, VA, USA) was cultured in Dulbecco’s Modified Eagle Medium with 10% fetal bovine serum (FBS, v/v) (Gibco, Billings, MT, USA) and supplemented with 1% antibiotics (10,000 μg/mL streptomycin and 10,000 U/mL penicillin) (Gibco, Billings, MT, USA) at 37 °C in a humidified 5% CO2 atmosphere. For the in vitro modeling of the tumor microenvironment, compounds were also tested in a 3D spheroid test system. For this purpose, the MIA PaCa-2 human pancreas epithelial carcinoma (CRL-1420™) cell line and human dermal fibroblast cell line HDF (PCS-201-012) cells were used.
For 3D spheroid formation, the MIA PaCa-2 cells (PC cell line) and HDF cells were used according to the 3D Bioprinting method. To better simulate the tumor microenvironment, PC cells were mixed (1:1) with human fibroblasts. Briefly, the MIA PaCa-2 cells and human fibroblasts at 70–80% confluency were added to a 6-well plate and incubated with biocompatible NanoShuttle TM-PL (Bioprinting Kit, Greiner Bio-One, Germany) overnight at 37 °C in a humidified 5% CO2 atmosphere. After the nanoparticles were taken up by the cells, they were resuspended and seeded into an ultra-low attachment 96-well plate at a volume of 100 μL (2000 PC cells and 2000 human fibroblasts per well) volume. The plate was placed on a magnetic drive and incubated at 37 °C in a humidified 5% CO2 atmosphere until spheroids were formed. After two days of incubation, the spheroids were photographed using light microscopy (Carl Zeiss Primo Vert, Germany). Fresh medium containing 0.1, 1, 10, and 100 µM of tested compound was added to the wells. Photos were taken every 72 h, and the medium was replaced every 72 h. The effect of the tested compounds in 3D PC cell cultures was examined by measuring the size change of spheroids using ImageJ software (ImageJ 2.0 software, USA).

HaCaT cell line = experiment: Cell viability (cytotoxicity) in healthy cells, MTT assay; type: cell-based, human; settings: Homo sapiens, HaCaT; MTT, 72 h, healthy keratinocytes; read-out: IC50 in 2D cultured HaCaT cell line
Procedure: HaCaT human healthy keratinocyte cells (CRL-2404™) (ATCC, Manassas, VA, USA) were cultured in DMEM (10% FBS, v/v) (Gibco, Billings, MT, USA), respectively and supplemented with 1% antibiotics (10.000 μg/mL streptomycin and 10.000 units/mL penicillin) (Gibco, Billings, MT, USA) at 37 °C in a humidified atmosphere of 5% CO2. For the preliminary assessment of the cytotoxicity of selected potent compounds in healthy cells, HaCaT cells were seeded 2 × 10^5 cells/mL in 96-well plate and incubated for 24 h. The following day the 7a, 7d, and 7f compounds were applied similarly as in the MIA PaCa-2 cytotoxicity protocol between concentrations 0.62–100 µM for 72 h and then MTT was applied.

MIA PaCa-2 cell line = experiment: 2D anticancer activity, MTT assay; type: cell-based; settings: Homo sapiens, 72 h exposure, read-out: IC50 in 2D cultured MIA PaCa-2 cell line
Procedure: as §1
For the assessment of anticancer activity of the compounds, the MIA PaCa-2 cells were plated in 48-well microplates at 1.5 × 10^5 cells/mL and incubated for 24 h at 37 °C in 5% CO2 in accordance with a previously reported method. Following the day, the cells were treated with compounds in various concentrations between 0.1–100 µM dissolved in dimethyl sulfoxide (DMSO) (Sigma Aldrich, St. Louis, MO, USA). Following the 72 h of incubation, culture mediums were discarded and 0.5 mg/mL 3-(4,5-Dimethylthiazol-2-yl)-2,5-Diphenyltetrazolium Bromide (MTT) (Sigma Aldrich, St. Louis, MO, USA) was added to each well for an additional 2 h at 37 °C. After 2 h incubation, the medium was discarded and 100 µL of isopropanol (Sigma Aldrich, St. Louis, MO, USA) was added to the wells to dissolve formazan crystals. The optical density was measured at 570 nm wavelength using a microplate reader (Thermo Fisher Scientific Multiskan, Finland). Doxorubicin hydrochloride (DOX) (European Pharmacopoeia standard, Sigma) was used as internal positive control, and 0.5% DMSO (v/v) was used as negative control. The percentage of cell viability was determined by using the following equation:(1) Viability %=(Absorbancecompound)/(Absorbancenegative control)×100%

COX-2 = biological target: T1, COX-2 (Homo sapiens, UniProt P35354); experiment: Fluorometric COX-2 inhibitor screening kit; settings: at 10 µM
T1 sequence (P35354 18-604): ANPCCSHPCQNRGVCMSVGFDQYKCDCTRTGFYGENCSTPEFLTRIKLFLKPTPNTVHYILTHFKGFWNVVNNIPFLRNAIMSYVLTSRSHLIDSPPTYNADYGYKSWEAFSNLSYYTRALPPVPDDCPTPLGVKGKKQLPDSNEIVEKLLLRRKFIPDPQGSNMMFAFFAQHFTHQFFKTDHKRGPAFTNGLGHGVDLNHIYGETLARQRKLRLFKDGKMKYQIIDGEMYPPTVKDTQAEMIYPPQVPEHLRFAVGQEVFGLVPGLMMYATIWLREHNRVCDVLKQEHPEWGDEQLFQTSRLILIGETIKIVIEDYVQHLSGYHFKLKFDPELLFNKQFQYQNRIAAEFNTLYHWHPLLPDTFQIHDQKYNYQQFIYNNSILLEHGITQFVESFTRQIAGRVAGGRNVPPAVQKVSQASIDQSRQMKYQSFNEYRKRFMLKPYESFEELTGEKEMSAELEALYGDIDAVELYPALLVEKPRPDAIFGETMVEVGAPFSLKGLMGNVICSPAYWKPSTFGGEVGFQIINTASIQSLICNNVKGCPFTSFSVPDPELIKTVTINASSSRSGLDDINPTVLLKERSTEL
Procedure: For the determination of COX-1 and COX-2 inhibitory activity, the tested compounds were dissolved in dimethyl sulfoxide (DMSO, 5 mM stock solution) and then diluted with the same solvent to obtain the test solutions. The test solutions were further diluted 5× with COX Assay Buffer (2 µL of test solution: 8 µL COX Assay Buffer). […] Solvent Control (SC) was prepared by adding 2 µL DMSO and 8 µL COX Assay Buffer, while Sample (S) and Enzyme Control (EC) were prepared by adding 10 µL of diluted test solution and COX Assay Buffer, respectively, into assigned wells.

5-LOX = biological target: T2, 5-LOX (Homo sapiens, UniProt P09917); experiment: Fluorometric 5-LOX inhibitor screening kit; type: biochemical; settings: for 5-LOX Percent of İnhibition: at 10 µM
T2 construct: purchased MyBioSource
T2 sequence (P09917 1-674): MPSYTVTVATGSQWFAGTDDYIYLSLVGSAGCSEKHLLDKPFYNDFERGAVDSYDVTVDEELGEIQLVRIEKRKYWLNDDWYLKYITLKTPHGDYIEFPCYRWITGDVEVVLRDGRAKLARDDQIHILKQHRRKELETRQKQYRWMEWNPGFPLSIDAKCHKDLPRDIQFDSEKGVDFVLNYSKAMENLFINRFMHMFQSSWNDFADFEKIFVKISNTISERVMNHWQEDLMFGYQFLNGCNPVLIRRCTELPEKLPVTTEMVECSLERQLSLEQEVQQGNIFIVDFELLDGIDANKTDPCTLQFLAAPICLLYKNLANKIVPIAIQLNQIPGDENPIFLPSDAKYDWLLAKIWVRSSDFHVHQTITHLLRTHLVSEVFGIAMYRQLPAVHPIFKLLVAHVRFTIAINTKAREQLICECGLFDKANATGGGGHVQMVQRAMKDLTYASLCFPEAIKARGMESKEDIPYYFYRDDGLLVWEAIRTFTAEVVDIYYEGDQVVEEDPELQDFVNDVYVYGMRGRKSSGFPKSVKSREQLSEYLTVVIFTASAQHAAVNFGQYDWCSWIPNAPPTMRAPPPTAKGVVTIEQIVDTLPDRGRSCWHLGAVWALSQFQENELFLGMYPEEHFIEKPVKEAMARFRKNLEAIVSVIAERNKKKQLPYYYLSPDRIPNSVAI
Procedure: COX-1 and COX-2 inhibitory activities were tested using fluorometric COX-1 and COX-2 inhibitor screening kits (Abcam, United Kingdom), and the 5-LOX inhibitory activity was tested using a fluorometric 5-LOX inhibitor screening kit (MyBioSource, USA). These assays are based on the fluorometric detection of Prostaglandin G2 (a product generated by the COX enzyme) or on the fluorometric detection of the intermediate generated by the 5-LOX enzyme. The experiments were conducted in accordance with the manufacturers’ instructions.
For the determination of 5-LOX inhibitory activity, tested compounds were dissolved in DMSO (5 mM stock solution) and then diluted with the same solvent to obtain the test solutions. Test solutions were added to wells in an amount of 2 µL in the final 100 µL reaction volume. […] EC, SC, IC, and all test solutions were analyzed in triplicate.

IC50 (MIA PaCa-2 cell line) [µM] | COX-2 Percent of İnhibition (COX-2) [%] | melting point [°C] | 5-LOX Percent of İnhibition (5-LOX) [%] | IC50 (5-LOX) [µM] | SMILES | Reduction in spheroid size ([1]; 10 µM, after 9 days of treatment) [%] | IC50 (HaCaT cell line) [µM] | Spheroid Diameter Day 0 ([1]; 0.1 µM group) | Spheroid Diameter Day 9 ([1]; 0.1 µM) | Spheroid Diameter Day 0 ([1]; 1 µM group) | Spheroid Diameter Day 9 ([1]; 1 µM) | Spheroid Diameter Day 0 ([1]; 10 µM group) | Spheroid Diameter Day 9 ([1]; 10 µM) | Spheroid state at the end of the 9 days ([1]; 100 µM) | Spheroid Diameter Day 0 ([1]; 100 µM group) | Spheroid Diameter Day 9 ([1]; 100 µM) | Spheroid state at the end of the 9 days ([1]; 10–100 µM)
0.35 ± 0.18 |  |  |  |  | COc1cccc2c1C(=O)c1c(O)c3c(c(O)c1C2=O)C[C@@](O)(C(=O)CO)C[C@@H]3O[C@H]1C[C@H](N)[C@H](O)[C@H](C)O1 [DOX, Doxorubicin hydrochloride, reference compound] | 24 | 0.11 ± 0.08 |  |  |  |  |  |  |  |  |  | 
9.65 ± 0.22 | 16.64 ± 1.11 | 262 | 36.10 ± 3.92 |  | O=C(N/N=C/c1ccc2c(c1)OCO2)c1cc(-c2ccccc2)c(-c2ccccc2)s1 [7j, N’-[(E)-(2H-1,3-benzodioxol-5-yl)methylidene]-4,5-diphenylthiophene-2-carbohydrazide] |  |  | 1112.0 ± 35.4 | 6291.5 ± 45.87 | 998.0 ± 11.5 | 5934.0 ± 96.3 | 1068.0 ± 68.1 | 5217.4 ± 25.7 | disintegrated |  |  | 
> 100 | 8.35 ± 0.93 | 245 | 19.87 ± 1.62 |  | COc1ccc(/C=N/NC(=O)c2cc(-c3ccccc3)c(-c3ccccc3)s2)c(OC)c1OC [7h, N’-[(E)-(2,3,4-trimethoxyphenyl)methylidene]-4,5-diphenylthiophene-2-carbohydrazide] |  |  | 1125.5 ± 28.9 | 5215 ± 18.3 | 1220.5 ± 31.5 | 6682.5 ± 7.1 | 1192.0 ± 24.7 | 8165.5 ±18.1 |  | 942.0 ± 58.9 | 7936.5 ± 48.6 | 
> 100 | 13.27 ± 0.73 | 254 | 27.23 ± 0.64 |  | COc1cc(/C=N/NC(=O)c2cc(-c3ccccc3)c(-c3ccccc3)s2)cc(OC)c1OC [7i, N’-[(E)-(3,4,5-trimethoxyphenyl)methylidene]-4,5-diphenylthiophene-2-carbohydrazide] |  |  | 1135.5 ± 2.5 | 5523.0 ± 15.2 | 943.0 ± 12.1 | 3539.0 ± 25.4 |  | 2764.0 ± 37.9 |  | 1023.0 ± 59.5 | 2776.5 ± 85.2 | 
24.2 ± 3.76 | 11.41 ± 3.40 | 253 | 20.38 ± 1.98 |  | COc1ccc(/C=N/NC(=O)c2cc(-c3ccccc3)c(-c3ccccc3)s2)cc1OC [7g, N’-[(E)-(3,4-dimethoxyphenyl)methylidene]-4,5-diphenylthiophene-2-carbohydrazide] |  |  | 1222.5 ± 28.73 | 5969.0 ± 59.6 | 985.5 ± 65.7 | 3318.0 ± 35.4 |  |  |  |  |  | disintegrated
9.09 ± 1.11 | 24.13 ± 1.55 | 225 | 25.77 ± 2.54 | 93.2 ± 9.89 | O=C(N/N=C/c1cccc(O)c1)c1cc(-c2ccccc2)c(-c2ccccc2)s1 [7b, N’-[(E)-(3-hydroxyphenyl)methylidene]-4,5-diphenylthiophene-2-carbohydrazide] |  |  | 1193.0 ± 13.1 | 5922.5 ± 39.8 | 1185.5 ± 82.7 | 6461.5 ± 59.6 | 969.3 ± 28.9 | 4192.0 ± 44.8 |  | 644.7 ± 26.9 | 1050.5 ± 18.9 | 

SMILES | IC50 (MIA PaCa-2 cell line) [µM] | COX-2 Percent of İnhibition (COX-2) [%] | melting point [°C] | 5-LOX Percent of İnhibition (5-LOX) [%] | IC50 (5-LOX) [µM] | Reduction in spheroid size ([1]; 10 µM, after 9 days of treatment) [%] | IC50 (HaCaT cell line) [µM] | Spheroid Diameter Day 0 ([1]; 0.1 µM group) | Spheroid Diameter Day 9 ([1]; 0.1 µM) | Spheroid Diameter Day 0 ([1]; 1 µM group) | Spheroid Diameter Day 9 ([1]; 1 µM) | Spheroid Diameter Day 0 ([1]; 10 µM group) | Spheroid Diameter Day 9 ([1]; 10 µM) | Spheroid state at the end of the 9 days ([1]; 100 µM) | Spheroid Diameter Day 0 ([1]; 100 µM group) | Spheroid Diameter Day 9 ([1]; 100 µM) | Spheroid state at the end of the 9 days ([1]; 10–100 µM)
CC(c1cc2ccccc2s1)N(O)C(N)=O (stereo not drawn) [Zileuton, reference compound] |  |  |  | 64.85 ± 0.39 |  |  |  |  |  |  |  |  |  |  |  |  | 
